The target in assay [1] is T1, ABL (WT) (Homo sapiens, UniProt P00519).
T1 construct: purchased BPS Biosciences (named as the lab that ran the assay)
Put plainly: Abl kinase activity assay, Kinase-Glo Plus luminescence (BPS Biosciences). The class given is biochemical. Conditions: 10 μM ATP. The protocol:
(§1) Assay was conducted by BPS Biosciences, 6405 Mira Mesa Blvd. Suite 100. San Diego, Calif. 92121. United States
(§2) • The assay was performed using Kinase-Glo Plus luminescence kinase assay kit (Promega). It measures kinase activity by quantitating the amount of ATP remaining in solution following a kinase reaction. The luminescent signal from the assay is correlated with the amount of ATP present and is inversely correlated with the amount of kinase activity. • The testing compounds were diluted in 10% DMSO and 5 μl of the dilution was added to a 50 μl reaction so that the final concentration of DMSO is 1% in all of reactions. All of the enzymatic reactions were conducted at 30° C. for 45 minutes. The 50 μl reaction mixture contains 40 mM Tris, pH 7.4, 10 mM MgCl2, 0.1 mg/ml BSA, 1 mM DTT, 10 μM ATP, Kinase substrate and the enzyme. After the enzymatic reaction, 50 μl of Kinase-Glo Plus Luminescence kinase assay solution (Promega) was added to each reaction and incubated on the plate for 15 minutes, at room temperature. Luminescence signal was measured using a BioTek Synergy 2 microplate reader.
(§3) • Kinase activity assays were performed in duplicate at each concentration. The luminescence data were analyzed using the computer software, Graphpad Prism. The difference between luminescence intensities in the absence of Kinase (Lut) and in the presence of Kinase (Luc) was defined as 100% activity (Lut−Luc). Using luminescence signal (Lu) in the presence of the compound, % activity was calculated as: • % activity={(Lut−Lu)/(Lut−Luc)}×100%, where Lu=the luminescence intensity in the presence of the compound. The values of % activity versus a series of compound concentrations were then plotted using non-linear regression analysis of Sigmoidal dose-response curve generated with the equation Y=B+(T−B)/1+10 ((LogEC50−X)×Hill Slope), where Y=percent activity, B=minimum percent activity, T=maximum percent activity, X=logarithm of compound and Hill Slope=slope factor or Hill coefficient. The IC 50 value was determined by the concentration causing a half-maximal percent activity.

Assay [2] has as its target T2, Abl(T315I) (Homo sapiens, UniProt P00519, T315I).
T2 construct: purchased BPS Biosciences (named as the lab that ran the assay)
Put plainly: Abl(T315I) kinase activity assay, Kinase-Glo Plus luminescence (BPS Biosciences). The class given is biochemical. Conditions: 10 μM ATP. The method, then:
as §1, §2, §3

The mark [3] stands for this setting: 10 nM compound, read-out: % Inhibition of Compound 55 @10 nM.
The mark [4] stands for this setting: 100 nM compound, read-out: % Inhibition of Compound 55 @100 nM.

Bounds are passed on as bounds.

Turning to `Cc1ccc(C(=O)Nc2ccc(CN3CCN(C)CC3)c(C(F)(F)F)c2)cc1C12CC(c3cnc4cccnn34)(C1)C2` [Compound 55, 3-(3-(imidazo[1,2-b]pyridazin-3-yl)bicyclo[1.1.1]pentan-1-yl)-4-methyl-N-(4-((4-methylpiperazin-1-yl)methyl)-3-(trifluoromethyl)phenyl)benzamide], the inhibition at 0.01 µM in assay [1] (setting [3]) and in assay [2] (setting [3]) was greater than 10% throughout. For the same compound, the inhibition at 0.1 µM in assay [1] (setting [4]) and in assay [2] (setting [4]) was greater than 25% each time. Besides, the IC50 in assay [1] (read-out: IC-50 of Compound 55) and in assay [2] (read-out: IC-50 of Compound 55) was less than 500 nM throughout.

These data come from US20220289756A1, “COMPOUNDS AND COMPOSITIONS AS INHIBITORS OF PROTEIN KINASES” (priority 2021, published 2022).
